# Data from patent publication US6218384A, “3-Oxo-pyrido(1,2-a)benzimidazole-4-carboxyl and 4-oxo-azepino(1,2-a)benzimidazole-5-carboxyl derivatives useful in treating central nervous system disorders” (Ortho-McNeil Pharmaceutical, Inc., priority 1997, dated 2001).
# Columns and labels:
# [1] = Screens in which the excluded compounds were tested (not specified); conditions: compounds excluded from formula I
# [2] = Horizontal Screen Test for Determining Benzodiazepine Antagonism; assay type: in vivo, male CD1 mice; conditions: chlordiazepoxide 28 mg/kg, sc; mice
# Method: Some of the compounds of the invention were tested for their ability to antagonize the locomotor discoordinating property of chlordiazepoxide. Male CD1 mice, fasted for at least 16 hours but allowed access to water except during the period of observation, were placed on a horizontally-held screen (mesh size 1/4", wire diameter approximately 1.0 mm). The screen was inverted and mice which successfully climb to the top side of the screen within one minute were selected for testing. Selected mice were weighed and divided into equal groups. Test compounds or vehicle were administered to those mice parenterally at the same time as chlordrazepoxide (28 mg/kg, sc). At a pre-determined interval (or intervals) after administration, the animals were tested for their ability to climb to the top side of the inverted screen (pass the test). Activity is reported as the percent antagonism of the number of animals that fail the test in each treatment group relative to the corresponding chlordiazepoxide-treated group. Percent Antagonism =100×[(Percent Fail in Chlordiazepoxide Group)-(Percent Fail in Test Group)/Percent Fail in Chlordiazepoxide Group]. […] The percent antagonism values for the compounds of the present invention that were tested are as follows: CP 113=0, CP 53=0, CP 59=0,CP 102=0,[…],CP 7=17,CP 8=17,CP 9=30,CP 10=30, CP 11=92, CP 12=92, CP 13=100. Compounds having values above 0 were considered active as agents for treating drug overdoses, particularly overdoses of benzodiazepine.
# [3] = molecular target: benzodiazepine site of the GABA-A receptor; assay: Benzodiazepine Receptor Binding Assay (inhibition of 3H-flunitrazepam binding); conditions: Table 1; ca. 3 nM 3H-flunitrazepam, 25° C., 10-20 min; >10,000 = not active
# [4] = Horizontal Screen Test for Motor Coordination; assay type: in vivo, male CD1 mice; conditions: Table 1, mice, parenteral, >300 = active dose not determined; for ED50: Mus musculus, read-out: Horiz. Screen ED50
# Method: Some of the compounds of the invention were tested for their ability to act as general CNS agents and particularity as skeletal muscle relaxants and hypnotics/sedatives (Coughenour, L. L. et al. Pharm. Biochem. Behav. 1977, 6, 351). Male CD1 mice, fasted for at least 16 hours but allowed access to water except during the period of observation, were placed on a horizontally-held screen (mesh size 1/4", wire diameter approximately 1.0 mm). The screen was inverted and mice which successfully climb to the top side of the screen within one minute were selected for testing. Selected mice were weighed and divided into equal groups. Test compounds or vehicle were administered to those mice parenterally. At a pre-determined interval (or intervals) after administration, the animals were tested for their ability to climb to the top side of the inverted screen (pass the test). Activity is reported as the percent reduction in the number of animals that pass the test in each treatment group relative to the corresponding vehicle-treated group. Percent Reduction=100×([Percent Pass in Vehicle Group]-[Percent Pass in Test Group]/Percent Pass in Vehicle Group). Test compounds which produce a 50% or greater reduction in the number passing the test were considered active. ED50 values of the active compounds were calculated by the method of probits (Finney, D. J. 1971. Probit Analysis. London: Cambridge University Press) and are listed in Tables 1 to 5.
# [5] = Suppression of metrazol-induced convulsions; assay type: in vivo, male CD1 mice; conditions: Table 1, ip, mice, clonic convulsions after sc CD90 metrazol, >30 = active dose not determined; for ED50: Mus musculus, 0.5 h, read-out: Metrazol (ip) ED50
# [6] = Suppression of anxiety (punished licking, conflict test) in the adult male rat; assay type: in vivo, male rats; conditions: Table 1, ip, minimum effective dose, >10 = active dose not determined; for minimal effective dose: read-out: Conflict (ip) MED
# Procedure, shortened: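 Rats were deprived of water for 48 h and food for 24 h, with unpunished training the day before. Testing began at expected peak drug activity: 3-min session, every 20th lick punished by a 0.2-s shock.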
Compound,IC50 [3] [nM],ED50 [4] [mg/kg],ED50 [5] [mg/kg],minimal effective dose [6] [mg/kg],other results
"O=C(Nc1ccccc1C(F)(F)F)C1=C(O)CCn2c1nc1ccccc12 [1,2-dihydro-3-hydroxy-N-(2-trifluoromethylphenyl)-pyrido(1,2-a)benzimidazole-4-carboxamide]",,,,,biological activity in the screens in which they have been tested [1]: none of these compounds has exhibited biological activity
"CN(C)c1cc(F)ccc1NC(=O)C1=C(O)CCn2c1nc1ccccc12 [1,2-dihydro-N-(2-dimethylamino-4-fluorophenyl)-3-hydroxypyrido(1,2-a)benzimidazole-4-carboxamide]",,,,,biological activity in the screens in which they have been tested [1]: none of these compounds has exhibited biological activity
"O=C(Nc1ccncc1)C1=C(O)CCn2c1nc1ccc(Cl)cc12 [8-chloro-1,2-dihydro-3-hydroxy-N-(4-pyridyl)-pyrido(1,2-a)benzimidazole-4-carboxamide]",,,,,biological activity in the screens in which they have been tested [1]: none of these compounds has exhibited biological activity
"CN(C)c1ccc(NC(=O)C2=C(O)CCn3c2nc2ccc(Cl)cc23)cc1 [N-(4-(dimethylamino)phenyl)-8-chloro-1,2-dihydro-3-hydroxypyrido(1,2-a)benzimidazole-4-carboxamide]",,,,,biological activity in the screens in which they have been tested [1]: none of these compounds has exhibited biological activity
"CNC1=Nc2ccc(Cl)cc2C(c2ccccc2)=[N+]([O-])C1 [chlordiazepoxide, reference compound]",,,,,impairment of the ability to pass the inverted screen test [2]: impairs the ability of all animals to pass this test
CCCCc1ccc(NC(=O)C2=C3Nc4ccccc4N3CCC2=O)cc1 [compound 17],> 10000,300,> 10,,
Cc1cccc(C)c1NC(=O)C1=C2Nc3ccccc3N2CCC1=O [compound 19],7700,300,> 30,> 10,
O=C1CCN2C(=C1C(=O)Nn1cnnc1)Nc1ccccc12 [compound 42],2700,300,> 10,> 10,
C[n+]1ccc(NC(=O)C2=C3Nc4ccccc4N3CCC2=O)cc1 [compound 56],6300,100,> 10,> 10,
O=C1CCN2C(=C1C(=O)NC1CCNCC1)Nc1ccccc12 [compound 58],> 10000,100,> 10,> 10,
NC(=O)c1ccc(NC(=O)C2=C3Nc4ccccc4N3CCC2=O)cc1 [compound 90],110,> 10,> 10,> 10,
O=C1CCN2C(=C1C(=O)Nc1cccc(F)c1)Nc1ccccc12 [compound 95],160,> 10,> 10,> 10,
O=C1CCN2C(=C1C(=O)Nc1ccncc1F)Nc1ccccc12 [compound 97],53,> 10,1,10,
"N-(2-Fluorophenyl)-3-hydroxypyrido(1,2-a)benzimidazol-4-carboxamide [CP 139]",> 10000,,,,Conflict (ip) MED [6]: > 10 mg/kg; Horiz. Screen ED50 [4]: 300 mg/kg; Metrazol (ip) ED50 ([5]; 30 min): > 300 mg/kg
